Measured values taken from publication PMC10287695, “Non-covalent inhibitors of thioredoxin glutathione reductase with schistosomicidal activity in vivo” (Nature Communications, 2023).

What was measured:
[1] = test system: S. mansoni adult worms; experiment: Schistosomicidal activity ex vivo, adult worms (Cell Titer Glo), alone or with channel blockers; assay type: cell-based; details: 24 h exposure, compound alone
Description: Three-week old, female Swiss-Webster mice obtained from the Charles River were housed in the Comparative Research Center of Rush University Medical Center. Mice were infected by percutaneous tail exposure to about 200 S. mansoni or 50 S. japonicum cercaria for adult worms and about 1000 cercaria for juvenile S. mansoni worms through natural transdermal penetration of the cercariae for 1 h[81].
DMSO formulated compounds were diluted with phenol red free M199 medium or RPMI medium for NTS or juvenile and adult worms, respectively, at <1% DMSO final concentrations. NTS, juvenile and adult worms from overnight cultures were tested against compounds in triplicate. Controls were treated with DMSO alone or 5 µM AF as a positive control in appropriate medium. […] Schistosome viabilities in the presence of the compounds were assessed using this formula: % Viability = Averages of Test / Averages of DMSO Control x 100.

[2] = molecular target: T1, Human GR (Homo sapiens, UniProt P00390); experiment: Human GR enzyme inhibition (GSSG reduction, NADPH oxidation); assay type: biochemical; details: 66.7 µM
T1 construct: made in house
T1 sequence (P00390 44-522): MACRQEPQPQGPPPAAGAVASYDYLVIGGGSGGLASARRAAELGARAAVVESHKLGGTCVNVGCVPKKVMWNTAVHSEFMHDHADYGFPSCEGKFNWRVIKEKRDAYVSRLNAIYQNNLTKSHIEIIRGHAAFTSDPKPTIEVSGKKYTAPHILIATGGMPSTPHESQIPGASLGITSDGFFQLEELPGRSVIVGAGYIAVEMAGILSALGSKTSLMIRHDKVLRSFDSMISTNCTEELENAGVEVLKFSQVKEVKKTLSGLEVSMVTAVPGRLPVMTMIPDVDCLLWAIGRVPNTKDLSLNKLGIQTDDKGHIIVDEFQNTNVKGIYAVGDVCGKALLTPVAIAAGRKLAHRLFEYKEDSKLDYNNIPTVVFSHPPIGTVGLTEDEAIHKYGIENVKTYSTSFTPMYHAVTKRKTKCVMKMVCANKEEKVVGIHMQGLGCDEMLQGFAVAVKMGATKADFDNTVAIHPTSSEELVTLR

[3] = test system: S. mansoni adult worms; experiment: GSH/GSSG ratio in ex vivo adult worms; assay type: cell-based; details: for % Ratio GSH/GSSG / Reduction (%) in GSH/GSSG ratio: adult worms ex vivo; for Reduction (%) in GSH/GSSG ratio: relative to 0hr

Cc1oc(-c2ccc3ccccc3c2)nc1CNC1CCCCCC1 [Compound 5]
LD50 ex vivo S. mansoni adult [1]: 9.36 ± 0.47 µM
Human GR (inhibition at 66.7 µM) [2]: n.i.
% Ratio GSH/GSSG ([3]; 1 hr): 47.8314%
Reduction (%) in GSH/GSSG ratio ([3]; 1 hr): 20.3307%
% Ratio GSH/GSSG ([3]; 3 hr): 26.3574%
Reduction (%) in GSH/GSSG ratio ([3]; 3 hr): 56.0984%
Decrease (%) in GSH/GSSG ratio ([3]; adult worms, 3 h exposure to compounds at 50 μM): 56%
